From paper PMC2779710 (Journal of medicinal chemistry, 2009)
Positions of bridges follow the written chain, without caps; N, C: chain ends. Non-standard residues stand in square brackets, D forms with d. Residues, ends and D or L forms follow the SMILES beside them. Phe(4-CH2NHiPr) = CC(C)NCc1ccc(C[C@H](N)C(=O)O)cc1

What was measured:
[1] = tested on: SRIF receptor; details: cited from earlier work
[2] = target: human sst1 receptor (Homo sapiens, UniProt P30872); experiment: Luciferase reporter gene assay in CCL39-sst1-Luci cells; details: for Luciferase Assay (agonist/antagonist property): CCL39-sst1-Luci cells, 0.1 nM to 1 μM, 5 h
Chain of human sst1 receptor (P30872 whole entry): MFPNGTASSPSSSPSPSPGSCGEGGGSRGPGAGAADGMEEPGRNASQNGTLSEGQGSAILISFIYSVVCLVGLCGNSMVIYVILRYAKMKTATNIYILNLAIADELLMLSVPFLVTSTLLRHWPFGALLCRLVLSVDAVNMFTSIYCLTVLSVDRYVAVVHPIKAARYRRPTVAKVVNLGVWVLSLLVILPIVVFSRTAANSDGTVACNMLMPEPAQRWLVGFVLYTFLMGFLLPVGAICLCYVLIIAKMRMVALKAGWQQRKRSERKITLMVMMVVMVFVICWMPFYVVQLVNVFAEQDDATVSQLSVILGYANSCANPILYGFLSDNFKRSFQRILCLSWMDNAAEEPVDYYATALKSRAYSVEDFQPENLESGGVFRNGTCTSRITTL

SMILES	Luciferase Assay (agonist/antagonist property) [2]	less potent than SRIF or 25 in luciferase reporter gene assay ([2]; EC50 comparison)	binding affinity to any SRIF receptor [1]
CC(C)NCc1ccc(C[C@@H]2NC(=O)[C@@H](Cc3c[nH]c4ccccc34)NC(=O)[C@H](Cc3ccccc3)NC(=O)[C@H](Cc3ccccc3)NC(=O)[C@@H](N)CSSC[C@@H](C(=O)O)NC(=O)[C@H](Cc3ccccc3)NC(=O)[C@H]([C@@H](C)O)NC2=O)cc1 [Compound 9, des-AA^1,2,4,5,12,13-[DTrp^8, IAmp^9]-SRIF] (H-CFF[dW][Phe(4-CH2NHiPr)]TFC-OH; disulfide 1-8 (inferred))	–	–	no binding affinity
CC(C)NCc1ccc(C[C@@H]2NC(=O)[C@@H](N(C)C(=O)c3ccc4ccccc4c3)NC(=O)[C@H](Cc3ccccc3)NC(=O)[C@@H](N)CSSC[C@@H](C(=O)N[C@H](C(N)=O)[C@@H](C)O)NC(=O)[C@H](Cc3ccccc3)NC2=O)cc1 [Compound 23, des-AA^1,2,4-6,10,12,13-[DAgl(NMe,2naphthoyl)^8,IAmp^9]-SRIF-Thr-NH2]	agonist	–	–
CC(C)NCc1ccc(C[C@@H]2NC(=O)[C@@H](N(C)C(=O)c3ccc4ccccc4c3)NC(=O)[C@H](Cc3ccccc3)NC(=O)[C@@H](NC(=O)[C@H](N)Cc3ccc(O)cc3)CSSC[C@@H](C(=O)N[C@H](C(N)=O)[C@@H](C)O)NC(=O)[C@H](Cc3ccccc3)NC2=O)cc1 [Compound 25, des-AA^1,4-6,10,12,13-[DTyr^2,DAgl(NMe,2naphthoyl)^8,IAmp^9]-SRIF-Thr-NH2]	potent sst1 agonist	–	–

Second part, led by results:

Luciferase Assay (agonist/antagonist property) [2]	less potent than SRIF or 25 in luciferase reporter gene assay ([2]; EC50 comparison)	SMILES	binding affinity to any SRIF receptor [1]
agonist	–	CC(C)NCc1ccc(C[C@@H]2NC(=O)[C@@H](N(C)C(=O)c3ccc4ccccc4c3)NC(=O)[C@H](Cc3ccccc3)NC(=O)[C@@H](N)CSSC[C@@H](C(N)=O)NC(=O)[C@H](Cc3ccc(O)cc3)NC2=O)cc1 [Compound 27, des-AA^1,2,4-6,10,12,13-[DAgl(NMe,2naphthoyl)^8,IAmp^9,Tyr^11]-SRIF-NH2]	–
agonist	–	CC(C)NCc1ccc(C[C@@H]2NC(=O)[C@@H](N(C)C(=O)c3ccc4ccccc4c3)NC(=O)[C@H](Cc3ccccc3)NC(=O)[C@H](N)CSSC[C@@H](C(=O)N[C@@H](Cc3ccc4ccccc4c3)C(N)=O)NC(=O)[C@H](Cc3ccccc3)NC2=O)cc1 [Compound 29, des-AA^1,2,4-6,10,12,13-[DCys^3,DAgl(NMe,2naphthoyl)^8,IAmp^9]-SRIF-2Nal-NH2]	–
agonist	approximately 100 fold	CC(C)NCc1ccc(C[C@@H]2NC(=O)[C@@H](Cc3c[nH]c4ccccc34)NC(=O)[C@H](Cc3ccccc3)NC(=O)[C@H](Cc3ccccc3)NC(=O)[C@H](CCCCN)NC(=O)[C@@H](NC(=O)[C@@H](N)Cc3ccc(O)cc3)CSSC[C@@H](C(=O)O)NC(=O)[C@H](CO)NC(=O)[C@H]([C@@H](C)O)NC(=O)[C@H](Cc3ccccc3)NC(=O)[C@H]([C@@H](C)O)NC2=O)cc1 [Compound 33, reference compound] (H-YCKFF[dW][Phe(4-CH2NHiPr)]TFTSC-OH; disulfide 2-12 (inferred))	–
